Where “and” joins values, the source holds several entries; their conditions need not be identical. Identical values can stand only once. Entries after “also recorded” stand apart in the source; their conditions may differ.
Legend:
[1] = test system: client owned dogs suffering from urinary incontinence; assay: double-blind, placebo-control study of long-acting GnRH analogue in incontinent dogs; type: in vivo, dog
Description: In a second ongoing study, 16 client owned dogs suffering from urinary incontinence were enrolled in a double-blind, placebo-control study. In the initial phase of the study, dogs were randomly assigned to treatment with a long-acting GnRH analogue (leuprolide acetate) or placebo (dog owners and the investigators were blinded to treatment) along with a short course of therapy with phenylpropanolamine. 5 weeks after treatment with drug or placebo, dogs were evaluated and, if not fully continent, treated with a long-acting GnRH analogue (leuprolide acetate) in an open label phase of the study. To date only 1 of 10 dogs treated with placebo became continent vs. […] treated with drug during the blinded portion of the study. Overall, the results generated thus far indicate […] dogs treated with the long-acting GnRH analogue became continent and […] improved after discontinuation of the short acting phenylpropanolamine. Only 1 dog of 15 treated with the GnRH analogue was considered not to have improved following treatment with the drug.

[2] = test system: bitches suffering from urinary incontinence after spaying; assay: GnRH analogue slow release implant in bitches with urinary incontinence after spaying; type: in vivo, dog; details: for Side effects: dash = none
Description: Additionally, for a limited period the dogs were treated with phenylpropanolamine in a dosage of 1.5 mg/kg BW tid orally.
After discontinuation of the shortacting phenylpropanolamine 8 bitches remained continent. Their continence was therefore achieved solely by the treatment with the composition as described in the present invention. Seven out of fifteen dogs seemed to be much happier and in none of the dogs did the general condition deteriorate. […] The respective results are shown in more detail in table 1.

[3] = test system: menopausal person suffering from stress incontinence; assay: 24 hour pad test in a menopausal person with stress incontinence; type: in vivo, human; details: single dose of 3.75 mg; 2 weeks after treatment; before treatment 10 to 130 ml daily
Description: A second menopausal person, suffering from stress incontinence for at least 6 years, was treated with a single dose of 3.75 mg of leuprolide acetate. 24 hour pad tests conducted prior to treatment with the drug indicated they lost between 10 and 130 ml of urine on a daily basis due to their incontinence.

[4] = test system: cocker spaniel bitches showing excessive growth of the undercoat due to spaying; assay: coat quality in spayed cocker spaniel bitches with excessive growth of the undercoat; type: in vivo, dog; details: 5 mg slow release s.c. implant
Description: Two cocker spaniel bitches belonging to the same owner were showing excessive growth of the undercoat due to spaying. […] Both dogs were first clinically examined and thereafter a GnRH analogue (Deslorelin) in a dosage of 5 mg, in slow release form, was subcutaneously implanted between the shoulder blades.

[5] = test system: perimenopausal person with urge incontinence and hotflushes; assay: treatment of a perimenopausal person with urge incontinence and hotflushes; type: in vivo, human; details: 3.75 mg; one person
[6] = 11.25 mg slow release s.c. implant, with PPA

CCNC(=O)[C@@H]1CCCN1C(=O)[C@H](CCCNC(=N)N)NC(=O)[C@H](CC(C)C)NC(=O)[C@@H](CC(C)C)NC(=O)[C@H](Cc1ccc(O)cc1)NC(=O)[C@H](CO)NC(=O)[C@H](Cc1c[nH]c2ccccc12)NC(=O)[C@H](Cc1c[nH]cn1)NC(=O)[C@@H]1CCC(=O)N1 [Leuprorelinacetate, Leuprolid acetate]
dogs that became continent ([1]; blinded portion, 5 weeks after treatment, with short course of phenylpropanolamine, placebo 1 of 10): 3 to 8 dogs
dogs considered not to have improved ([1]; overall, of 15 dogs treated): 1 dog
dogs that became continent ([1]; overall, of 15 dogs treated, after discontinuation of phenylpropanolamine): 6 dogs
dogs that improved ([1]; overall, of the remaining dogs, after discontinuation of phenylpropanolamine): 9 dogs
Duration of effect after treatment [2, 6]: >64 days
Effect on incontinence [2, 6]: 100%
Duration of effect after treatment ([2]; 11.25 mg slow release s.c. implant, without PPA): 0 days
Duration of effect after treatment ([2]; 11.25 mg slow release s.c. implant, without PPA, listed as Leuprorelin acetate): >14 days
daily urine loss (pad test) [3]: 1 mL

Buserelin acetate [Buserelinacetate]
Side effects ([2]; 6.3 mg slow release s.c. implant): agile, more
Duration of effect after treatment ([2]; 6.3 mg slow release s.c. implant, without PPA): 44 days and 83 days

Deslorelin acetate [Deslorelinacetate]
Side effects ([2]; 6 mg slow release s.c. implant): agile, more; also recorded: More playfull
Effect on incontinence ([2]; 6 mg slow release s.c. implant, with PPA (phenylpropanolamine)): 100%
Side effects ([2]; 12 mg slow release s.c. implant): More self-; also recorded: More tolerant; also recorded: less aggres-
Effect on incontinence ([2]; 12 mg slow release s.c. implant, with PPA): 80% and 100%
coat quality ([4]; 5 weeks after the injection, both dogs): obvious amelioration of the coat quality
signs of baby coat ([4]; 21 weeks after injection): no signes of “baby coat” were apparent anymore

Triptorelin acetate [Triptorelinacetate]
period of improvement of both symptoms [5]: about 4 weeks
urge incontinence and hotflushes, reported change [5]: improved considerably
Effect on incontinence ([2]; 3.75 mg slow release s.c. implant, 36 kg bitch, dose too low): Not effec-
Duration of effect after treatment ([2]; 3.75 mg slow release s.c. implant, dose too low): 0

Source: patent US20090246209A1, “GNRH ANALOGUES FOR TREATMENT OF URINARY INCONTINENCE” (priority 2000, published 2009)
